Data taken from ChEMBL document CHEMBL1129224, “Rapid decomposition of peroxynitrite by manganese porphyrin-antioxidant redox couples” (Bioorg Med Chem Lett, 1997).

Tests used:
Assay type in all cases: ADME
[1] = The compound was evaluated for the apparent first-order rate of reaction of ONOO- with antioxidant in presence of catalyst
[2] = The compound was evaluated for the rate of oxoMn (IV) reduction
[3] = The compound was evaluated for the apparent first-order rate of reaction of ONOO- with antioxidant

Compound	k cat [1] [M⁻¹ s⁻¹]	kred [2] [M⁻¹ s⁻¹]	kONOO- [3] [M⁻¹ s⁻¹]
O=C1O[C@H]([C@@H](O)CO)C(O)=C1O [ASCORBIC ACID]	2200000	54000000	88
N[C@@H](CCC(=O)N[C@@H](CS)C(=O)NCC(=O)O)C(=O)O [GLUTATHIONE]	3200000	130000	580
Cc1c(C)c2c(c(C)c1O)CCC(C)(C(=O)O)O2 (centres undefined) [TROLOX]	1100000	7000000	33
